Reference: patent US5422350A, “Nitrogen substituted acridine and cytochrome P450 inhibitors and methods of use” (priority 1992, dated 1995)
Read-outs that look alike come from different tables or passages of the source.

Legend:
P450 2D6 = conditions: cited from earlier work
[1] = Irreversible protein binding of 14C-tacrine-derived radioactivity, human liver microsomes; conditions: for effect on irreversible protein binding / Tacrine equivalents irreversibly bound to 1 mg microsomal protein: Human Prep B, 60 min; for Tacrine equivalents irreversibly bound to 1 mg microsomal protein: N = 3
Procedure: (§1) Total reaction volume was 3 mL. Reactions were stopped by freezing in liquid nitrogen or dry-ice acetone. […] D. J. Waxman and L. Axaroff, "Phenobarbital induction of cytochrome P-450 Gene Expression", BIOCHEM J, Vol. 281, pp. 577-592 (1992); P. Soucek and I. Gut, supra.
(§2) C. N. Martin and R. C. Garner: "Covalent Binding In Vitro and In Vivo" in BIOCHEMICAL TOXICOLOGY: A PRACTICAL APPROACH, Eds. K. Snell and B. Mullock, IRL, Wash. D.C. pp. 109-126 (1987).

[2] = Irreversible protein binding of 14C-tacrine-derived radioactivity, rat liver microsomes; conditions: for effect on irreversible protein binding / Tacrine equivalents irreversibly bound to 1 mg microsomal protein: MC induced Rat, 60 min; for Tacrine equivalents irreversibly bound to 1 mg microsomal protein: N = 3
Procedure: as §1, §2

[3] = tested on: hepatocytes from MC induced male rats; assay: Irreversible binding of 14C-tacrine and 14C-1-hydroxytacrine in MC induced rat hepatocytes; format: in vitro ADME
[4] = In vitro metabolism of 14C-tacrine in rat liver microsomes; conditions: microsomes from pretreated rats vs control
Procedure: as §1

[5] = Single-dose pharmacokinetic and metabolic disposition study of [14C]tacrine HCl in human male volunteers; format: in vivo; conditions: 10 and 40 mg oral, plasma
Procedure: Plasma and red blood cells (RBC) were collected predose and for 48 hours postdose. Urine and feces were collected predose and for 96 hours postdose. Urine and plasma samples were analyzed directly by liquid scintillation spectrometry while RBC and fecal samples were solubilized prior to counting. […] Metabolic profiling of urine was performed by HPLC radioactivity detection. Metabolites were identified by HPLC/photodiode array/mass spectrometry.

P450 1A2 [6] = target: T1, P450 1A2 (Homo sapiens, UniProt P05177); assay: in vitro
T1 sequence (P05177 2-516 limits assumed): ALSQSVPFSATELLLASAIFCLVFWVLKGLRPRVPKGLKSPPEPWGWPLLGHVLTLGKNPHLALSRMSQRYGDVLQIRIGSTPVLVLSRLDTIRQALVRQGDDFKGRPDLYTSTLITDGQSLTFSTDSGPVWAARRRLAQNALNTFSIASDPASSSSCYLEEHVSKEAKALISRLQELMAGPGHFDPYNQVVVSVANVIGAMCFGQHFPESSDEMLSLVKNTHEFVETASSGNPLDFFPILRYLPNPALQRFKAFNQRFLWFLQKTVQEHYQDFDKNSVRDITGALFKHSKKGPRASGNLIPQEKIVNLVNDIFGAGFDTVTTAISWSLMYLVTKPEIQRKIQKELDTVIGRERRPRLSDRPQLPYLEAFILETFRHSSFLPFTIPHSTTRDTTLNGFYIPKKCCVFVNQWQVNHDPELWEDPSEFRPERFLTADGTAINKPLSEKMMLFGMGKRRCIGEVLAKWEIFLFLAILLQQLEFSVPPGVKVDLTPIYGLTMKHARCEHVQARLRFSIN
Procedure: (§3) PHARMACOL., Vol. 42, pp. 767-772 (1990) was conducted. […] The effect of various enoxacin concentrations (8, 20, and 50 μM) on the extent of irreversible binding was examined in a separate study.

P450 1A2 [7] = assay: in vitro; conditions: for 1-hydroxytacrine equivalents irreversibly bound to 1 mg microsomal protein: 1-hydroxytacrine 0.5 μM
Procedure: as §3

P450 1A2 [8] = conditions: cited from earlier work
[9] = tested on: ethoxyresorufin O-deethylase; conditions: rat liver microsomes, Back et al. (1983); cited from earlier work
[10] = 20 min, read-out: inhibition of 1-hydroxytacrine irreversible binding
[11] = 20 min, read-out: inhibition of tacrine irreversible binding

C=C[C@H]1C[N@@]2CC[C@H]1C[C@@H]2[C@@H](O)c1ccnc2ccc(OC)cc12 [Quinidine]
P450 2D6 inhibition (P450 2D6): inhibitor of P450 2D6

N[C@@H](CCC(=O)N[C@@H](CS)C(=O)NCC(=O)O)C(=O)O [Glutathione]
detectable adducts with the reactive intermediate [1]: failed to produce detectable adducts | effect on irreversible binding [1]: dramatic reduction in irreversible binding | effect on irreversible protein binding ([1]; with GSH (5 mM)): 85.0 | Tacrine equivalents irreversibly bound to 1 mg microsomal protein ([1]; with GSH (5 mM)): 0.031 ± 0.001 nmol | effect on irreversible protein binding ([2]; with GSH (5 mM)): 58.3 | Tacrine equivalents irreversibly bound to 1 mg microsomal protein ([2]; with GSH (5 mM)): 0.058 ± 0.005 nmol | irreversible binding of 1-hydroxytacrine-derived radioactivity, Percent Control Value ([3]; 1-hydroxytacrine 10 uM + glutathione 5 mM): 49.1% | irreversible binding of tacrine-derived radioactivity, Percent Control Value ([3]; tacrine 10 uM + glutathione 5 mM): 62.6%

NNC(=O)c1ccncc1 [Isoniazid]
effect of pretreatment (induction) on 1-hydroxytacrine formation [4]: markedly increased 1-hydroxytacrine formation | effect of pretreatment on binding ([2]; rat): little or no effect on binding

Nc1c2c(nc3ccccc13)CCC(O)C2 (centres unmarked) [2-hydroxytacrine]
mean AUC(O-tldc), dose proportionality [5]: increased greater than dose proportionally

Cc1ccc2cc3c(ccc4ccccc43)c3c2c1CC3 [MC, 3-methylcholanthrene]
effect of pretreatment (induction) on 1-hydroxytacrine formation [4]: Less 1-hydroxytacrine was observed | increase in binding compared to control rat ([2]; MC induced rat): ~3 fold

CCn1cc(C(=O)O)c(=O)c2cc(F)c(N3CCNCC3)nc21 [Enoxacin]
inhibition of tacrine irreversible binding and biotransformation (P450 1A2 [6]; 50 μM enoxacin vs 8, 20 μM): greatest inhibition | inhibition at 8 µM (P450 1A2 [6]; [10]): 8.2% | inhibition at 20 µM (P450 1A2 [6]; [10]): 22.2% | inhibition at 50 µM (P450 1A2 [6]; [10]): 51.7% | inhibition at 8 µM (P450 1A2 [6]; [11]): 14.4% | inhibition at 20 µM (P450 1A2 [6]; [11]): 29.8% | inhibition at 50 µM (P450 1A2 [6]; [11]): 43.4% | effect on the binding of 1-hydroxytacrine (P450 1A2 [6]; enoxacin 8, 20, 50 μM): inhibitory effect | inhibition at 50 µM (P450 1A2 [6]; read-out: inhibition of extent of irreversible binding (maximum)): ≤ 73% | 1-hydroxytacrine equivalents irreversibly bound to 1 mg microsomal protein (P450 1A2 [7]; enoxacin 8.0, 20 min): 0.017 ± 0.001 | 1-hydroxytacrine equivalents irreversibly bound to 1 mg microsomal protein (P450 1A2 [7]; enoxacin 20.0, 20 min): 0.014 ± 0.001 | 1-hydroxytacrine equivalents irreversibly bound to 1 mg microsomal protein (P450 1A2 [7]; enoxacin 50.0, 20 min): 0.009 ± 0.001 | Tacrine equivalents irreversibly bound to 1 mg microsomal protein (P450 1A2 [7]; Table 6, tacrine 0.3 μM, line below enoxacin 50.0 (concentration not given), 20 min): 0.023 ± 0.002 | Tacrine equivalents irreversibly bound to 1 mg microsomal protein (P450 1A2 [7]; Table 6, tacrine 0.3 μM, line of enoxacin 20.0, 20 min): 0.036 ± 0.008 | Tacrine equivalents irreversibly bound to 1 mg microsomal protein (P450 1A2 [7]; Table 6, tacrine 0.3 μM, line of enoxacin 50.0, 20 min): 0.028 ± 0.001 | Tacrine equivalents irreversibly bound to 1 mg microsomal protein (P450 1A2 [7]; tacrine 0.5 μM + enoxacin 50 μM, 5 min): 0.009 ± 0.002 nmol | Tacrine equivalents irreversibly bound to 1 mg microsomal protein (P450 1A2 [7]; tacrine 0.5 μM + enoxacin 50 μM, 10 min): 0.017 ± 0.003 nmol | Tacrine equivalents irreversibly bound to 1 mg microsomal protein (P450 1A2 [7]; tacrine 0.5 μM + enoxacin 50 μM, 20 min): 0.026 ± 0.002 nmol | Tacrine equivalents irreversibly bound to 1 mg microsomal protein (P450 1A2 [7]; tacrine 0.5 μM + enoxacin 50 μM, 45 min): 0.052 ± 0.006 nmol | irreversible binding of 1-hydroxytacrine-derived radioactivity, Percent Control Value ([3]; 1-hydroxytacrine 10 uM + inhibitor 50 uM): 79.8% | inhibition of irreversible binding for both tacrine and 1-hydroxytacrine ([3]; relative ranking): less of an effect | irreversible binding of tacrine-derived radioactivity, Percent Control Value ([3]; tacrine 10 uM + inhibitor 50 uM): 78.9% | P450 1A2 inhibition (P450 1A2 [8]): selective inhibitor of P450 1A2

COc1cc(NC(C)CCCN)c2ncccc2c1 (centres unmarked) [Primaquine, 8-(4-amino-1-methylbutylamino)-6-methoxyquinoline]
inhibition of ethoxyresorufin O-deethylase activity [9]: inhibitors of ethoxyresorufin O-deethylase activity

B1: EH: human liver expoxide hydrase (EH) (protein, UniProt P07099 1-455, looked up)
Epoxide hydrolase 1: MWLEILLTSVLGFAIYWFISRDKEETLPLEDGWWGPGTRSAAREDDSIRPFKVETSDEEIHDLHQRIDKFRFTPPLEDSCFHYGFNSNYLKKVISYWRNEFDWKKQVEILNRYPHFKTKIEGLDIHFIHVKPPQLPAGHTPKPLLMVHGWPGSFYEFYKIIPLLTDPKNHGLSDEHVFEVICPSIPGYGFSEASSKKGFNSVATARIFYKLMLRLGFQEFYIQGGDWGSLICTNMAQLVPSHVKGLHLNMALVLSNFSTLTLLLGQRFGRFLGLTERDVELLYPVKEKVFYSLMRESGYMHIQCTKPDTVGSALNDSPVGLAAYILEKFSTWTNTEFRYLEDGGLERKFSLDDLLTNVMLYWTTGTIISSQRFYKENLGQGWMTQKHERMKVYVPTGFSAFPFELLHTPEKWVRFKYPKLISYSYMVRGGHFAAFEEPELLAQDIRKFLSVLERQ
detectable adducts with the reactive intermediate [1]: failed to produce detectable adducts | effect on irreversible binding ([1]; 14C tacrine incubations (Table 3, human and rat)): only a slight decrease in binding | effect on irreversible protein binding ([1]; with EH (100 ug)): 35.3 | Tacrine equivalents irreversibly bound to 1 mg microsomal protein ([1]; with EH (100 ug)): 0.134 ± 0.026 nmol | effect on irreversible protein binding ([2]; with EH (100 ug)): 16.6 | Tacrine equivalents irreversibly bound to 1 mg microsomal protein ([2]; with EH (100 ug)): 0.116 ± 0.007 nmol
